Assay results taken from the supplement of paper PMC11061612.

How the values were obtained:
Experiment in all cases: combination Emax (second highest fraction inhibited in the dose matrix, 72 h); higher = more inhibition; extreme values may be limits of the assay
[1] = tested on: BICR78 (Oral Cavity Carcinoma)
Method in brief: (§1)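 Cell lines grown in DMEM/F12 or RPMI with 10% FBS were plated in 1536-well plates and held 24 hours at 37°C, 5% CO2 before 72 hours of exposure to two-drug dose matrices, with DMSO typically at 0.2%. CellTiter-Glo 2.0 luminescence gave viability, which was converted to inhibition. Vehicle wells were set to 0 and blank wells to 1. Combination Emax is the second-highest inhibition in the matrix, and Bliss excess is the observed combination effect minus the expected EA + EB − EA·EB, where EA and EB are the single-agent effects.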

[2] = tested on: CAL-39 (Other Solid Carcinomas)
Method in brief: as §1

[3] = tested on: D-283MED (Other Solid Carcinomas)
Method in brief: as §1

[4] = tested on: ETK-1 (Biliary Tract Carcinoma)
Method in brief: as §1

H4 (Low Grade Glioma) = tested on: H4 (Low Grade Glioma)
Method in brief: as §1

[5] = tested on: HLE (Hepatocellular Carcinoma)
Method in brief: as §1

HuO9 (Osteosarcoma) = tested on: HuO9 (Osteosarcoma)
Method in brief: as §1

MCF7 (Breast Carcinoma) = tested on: MCF7 (Breast Carcinoma)
Method in brief: as §1

MSTO-211H (Mesothelioma) = tested on: MSTO-211H (Mesothelioma)
Method in brief: as §1

[6] = tested on: NCI-H1688 (Small Cell Lung Carcinoma)
Method in brief: as §1

SK-MEL-1 (Melanoma) = tested on: SK-MEL-1 (Melanoma)
Method in brief: as §1

[7] = tested on: SLVL (B-Cell Non-Hodgkin's Lymphoma)
Method in brief: as §1

[8] = tested on: TYK-nu (Ovarian Carcinoma)
Method in brief: as §1

[9] = tested on: YT (Other Blood Carcinomas)
Method in brief: as §1

A172 (Glioblastoma) = tested on: A172 (Glioblastoma)
Method in brief: as §1

[10] = tested on: GDM-1 (Acute Myeloid Leukemia)
Method in brief: as §1

[11] = tested on: KG-1 (Acute Myeloid Leukemia)
Method in brief: as §1

[12] = tested on: SNU-61 (Colorectal Carcinoma)
Method in brief: as §1

[13] = tested on: U-118-MG (Low Grade Glioma)
Method in brief: as §1

SMILES | combination Emax [1] | combination Emax [2] | combination Emax [3] | combination Emax [4] | combination Emax (H4 (Low Grade Glioma)) | combination Emax [5] | combination Emax (HuO9 (Osteosarcoma)) | combination Emax (MCF7 (Breast Carcinoma)) | combination Emax (MSTO-211H (Mesothelioma)) | combination Emax [6] | combination Emax (SK-MEL-1 (Melanoma)) | combination Emax [7] | combination Emax [8] | combination Emax [9] | combination Emax (A172 (Glioblastoma)) | combination Emax [10] | combination Emax [11] | combination Emax [12] | combination Emax [13]
CS(=O)(=O)CCNCc1ccc(-c2ccc3ncnc(Nc4ccc(OCc5cccc(F)c5)c(Cl)c4)c3c2)o1 [Lapatinib] + NC1(c2ccc(-c3nc4ccn5c(=O)[nH]nc5c4cc3-c3ccccc3)cc2)CCC1 [MK-2206] (first compound max 10 µM, 7x7, partner max 10 µM) | 0.545 | 0.999 | 0.96 | 0.947 | 0.883 | 0.597 | 0.995 | 0.953 | 0.126 | 0.819 | 0.888 | 0.81 | 0.894 | 0.945 |  |  |  |  | 
COc1nnc2ccc(N3CCC(c4ccc(OCCN5CCN(C)C(=O)[C@H]5C)cc4)CC3)nn12 [AZD5153] + C=CCn1c(=O)c2cnc(Nc3ccc(N4CCN(C)CC4)cc3)nc2n1-c1cccc(C(C)(C)O)n1 [AZD1775] (first compound max 1 µM, partner max 1 µM) | 0.482 | 0.788 | 0.988 | 0.576 | 0.884 | 0.61 | 0.919 | 0.684 | 0.255 | 0.707 | 0.568 | 0.738 | 0.772 | 0.917 | 0.543 | 0.961 | 0.861 | 0.601 | 0.467
CC(=O)c1c(C)c2cnc(Nc3ccc(N4CCNCC4)cn3)nc2n(C2CCCC2)c1=O [Palbociclib] + Cn1cnc2c(F)c(Nc3ccc(Br)cc3Cl)c(C(=O)NOCCO)cc21 [Selumetinib] (first compound max 10 µM, 7x7, partner max 10 µM) | 0.315 | 0.775 | 0.582 | 0.347 | 0.632 | 0.143 | 0.419 | 0.366 | 0.137 | 0.147 | 0.83 | 0.593 | 0.584 | 0.606 | 0.425 | 0.555 | 0.481 | 0.447 | 0.296
CC(=O)c1c(C)c2cnc(Nc3ccc(N4CCNCC4)cn3)nc2n(C2CCCC2)c1=O [Palbociclib] + CC1(C)CCC(CN2CCN(c3ccc(C(=O)NS(=O)(=O)c4ccc(NCC5CCOCC5)c([N+](=O)[O-])c4)c(Oc4cnc5[nH]ccc5c4)c3)CC2)=C(c2ccc(Cl)cc2)C1 [Venetoclax] (first compound max 10 µM, 7x7, partner max 1 µM) | 0.092 | 0.255 | 0.668 | 0.281 | 0.597 | 0.0796 | 0.406 | 0.339 | 0.0513 | 0.0922 | 0.242 | 0.325 | 0.401 | 0.504 | 0.457 | 0.892 | 0.85 | 0.152 | 0.229
NC1(C(=O)N[C@@H](CCO)c2ccc(Cl)cc2)CCN(c2ncnc3[nH]ccc23)CC1 [Capivasertib] + C[C@@H]1COCCN1C2=NC(=NC(=C2)C3(CC3)[S@](=N)(=O)C)C4=C5C=CNC5=NC=C4 [AZD6738] (first compound max 10 µM, 7x7, partner max 10 µM) | 0.628 | 0.653 | 0.975 | 0.695 | 0.809 | 0.605 | 0.79 | 0.731 | 0.304 | 0.445 | 0.296 | 0.845 | 0.728 | 0.838 | 0.779 | 0.734 | 0.739 | 0.309 | 0.685
COc1nnc2ccc(N3CCC(c4ccc(OCCN5CCN(C)C(=O)[C@H]5C)cc4)CC3)nn12 [AZD5153] + C[C@@H]1COCCN1C2=NC(=NC(=C2)C3(CC3)[S@](=N)(=O)C)C4=C5C=CNC5=NC=C4 [AZD6738] (first compound max 1 µM, 7x7, partner max 10 µM) | 0.636 | 0.797 | 0.995 | 0.717 | 0.796 | 0.689 | 0.938 | 0.747 | 0.359 | 0.633 | 0.689 | 0.689 | 0.803 | 0.923 | 0.739 | 0.943 | 0.905 | 0.544 | 0.611
C=CCn1c(=O)c2cnc(Nc3ccc(N4CCN(C)CC4)cc3)nc2n1-c1cccc(C(C)(C)O)n1 [AZD1775] + C1CN(CCC1(C(=O)N[C@@H](CCO)C2=CC=C(C=C2)Cl)N)C3=NC=NC4=C3C=CN4 [Capivasertib] (first compound max 3 µM, partner max 3 µM) | 0.441 | 0.782 | 0.904 | 0.664 | 0.942 | 0.858 | 0.902 | 0.706 | 0.352 | 0.687 | 0.336 | 0.87 | 0.695 | 0.949 | 0.623 | 0.824 | 0.852 |  | 0.577
NC1(C(=O)N[C@@H](CCO)c2ccc(Cl)cc2)CCN(c2ncnc3[nH]ccc23)CC1 [Capivasertib] + COc1nnc2ccc(N3CCC(c4ccc(OCCN5CCN(C)C(=O)[C@H]5C)cc4)CC3)nn12 [AZD5153] (first compound max 10 µM, 7x7, partner max 1 µM) | 0.636 | 0.787 | 0.771 | 0.503 | 0.744 | 0.389 | 0.841 | 0.754 | 0.258 | 0.406 | 0.681 | 0.764 | 0.632 | 0.792 | 0.472 | 0.79 | 0.852 | 0.303 | 0.658
NC1(C(=O)N[C@@H](CCO)c2ccc(Cl)cc2)CCN(c2ncnc3[nH]ccc23)CC1 [Capivasertib] + CC(C)n1c(=O)n(C)c2cnc3cc(F)c(-c4ccc(OCCCN5CCCCC5)nc4)cc3c21 [AZD1390] (first compound max 10 µM, 7x7, partner max 0.3 µM) | 0.368 | 0.457 | 0.475 | 0.331 | 0.515 | 0.194 | 0.509 | 0.459 | 0.213 | 0.296 | 0.226 | 0.637 | 0.309 | 0.336 | 0.226 | 0.401 | 0.241 | 0.146 | 0.47
CS(=O)(=O)CCNCc1ccc(-c2ccc3ncnc(Nc4ccc(OCc5cccc(F)c5)c(Cl)c4)c3c2)o1 [Lapatinib] + C[C@@H](Oc1cc(-c2cnn(C3CCNCC3)c2)cnc1N)c1c(Cl)ccc(F)c1Cl [Crizotinib] (first compound max 10 µM, 7x7, partner max 10 µM) | 0.918 | 1 | 0.985 | 0.958 | 0.944 | 0.537 | 0.982 | 0.981 | 0.263 | 0.742 | 0.954 | 0.65 | 0.719 | 0.939 | 0.941 | 0.913 | 0.49 | 0.697 | 0.491
Cn1cnc2c(F)c(Nc3ccc(Br)cc3Cl)c(C(=O)NOCCO)cc21 [Selumetinib] + C=CCn1c(=O)c2cnc(Nc3ccc(N4CCN(C)CC4)cc3)nc2n1-c1cccc(C(C)(C)O)n1 [AZD1775] (first compound max 10 µM, partner max 1 µM) | 0.344 | 0.726 | 0.956 | 0.384 | 0.739 | 0.345 | 0.747 | 0.247 | 0.442 | 0.525 | 0.896 | 0.797 | 0.715 | 0.945 | 0.365 | 0.898 | 0.587 | 0.527 | 0.327
CN(C)CCCOc1ccc(-c2ccc3ncc4c(c3c2)n(C2CCOCC2)c(=O)n4C)cn1 [AZD0156] + O=C(c1cc(Cc2n[nH]c(=O)c3ccccc23)ccc1F)N1CCN(C(=O)C2CC2)CC1 [Olaparib] (first compound max 3 µM, partner max 3 µM) | 0.129 | 0.331 | 0.557 | 0.329 | 0.536 | 0.335 | 0.49 | 0.324 | 0.0713 | 0.206 | 0.0982 | 0.313 | 0.354 | 0.212 | 0.323 | 0.533 | 0.336 |  | 0.304
Cc1nc(-c2cn3c(n2)-c2ccc(-c4cnn(C(C)(C)C(N)=O)c4)cc2OCC3)n(C(C)C)n1 [Taselisib] + O=C(Nc1ccc2[nH]nc(-c3ccncc3)c2c1)[C@@H]1CCN(CC(=O)N2CCN(c3ccc(-c4ncccn4)cc3)CC2)C1 [SCH772984] (first compound max 10 µM, 7x7, partner max 5 µM) | 0.66 | 1 | 0.775 |  | 0.68 | 0.33 |  |  | 0.806 |  | 0.893 | 0.667 |  | 0.597 |  |  |  |  | 
CS(=O)(=O)CCNCc1ccc(-c2ccc3ncnc(Nc4ccc(OCc5cccc(F)c5)c(Cl)c4)c3c2)o1 [Lapatinib] + Cn1cnc2c(F)c(Nc3ccc(Br)cc3Cl)c(C(=O)NOCCO)cc21 [Selumetinib] (first compound max 10 µM, 7x7, partner max 10 µM) | 0.547 | 1 | 0.935 |  | 0.27 | 0.234 |  |  | 0.337 |  | 0.838 | 0.432 |  | 0.725 |  |  |  |  | 
